# In BindingDB's records for patent US20240066136 (Cullgen (Shanghai), 2024):
# Molecular target: DNA damage-binding protein 1 (Homo sapiens, UniProt Q16531)
# Test: Surface Plasmon Resonance (SPR) Binding Assay
# Description: Surface plasmon resonance (SPR) binding assay. All SPR studies were performed on a Biacore X100 plus or T200 instrument (GE Healthcare). Immobilization of purified His-DDB1 was carried out at 25° C. using a CM5 sensor chip. The surface was pre-equilibrated in HBS-EP running buffer (10 mM HEPES, pH7.4, 150 mM NaCl, 3 mM EDTA, 0.05% P20), then activated with EDC/NHS. His-DDB1 proteins were immobilized by amine coupling to a density of 11,000-13,000 resonance units (RUs) on flow cell FC2, whereas flow cell FC1 was used as reference. Both DDB1 immobilized and reference surfaces were deactivated with 1M ethanolamine.
# Sequence of DNA damage-binding protein 1 (Q16531 whole entry): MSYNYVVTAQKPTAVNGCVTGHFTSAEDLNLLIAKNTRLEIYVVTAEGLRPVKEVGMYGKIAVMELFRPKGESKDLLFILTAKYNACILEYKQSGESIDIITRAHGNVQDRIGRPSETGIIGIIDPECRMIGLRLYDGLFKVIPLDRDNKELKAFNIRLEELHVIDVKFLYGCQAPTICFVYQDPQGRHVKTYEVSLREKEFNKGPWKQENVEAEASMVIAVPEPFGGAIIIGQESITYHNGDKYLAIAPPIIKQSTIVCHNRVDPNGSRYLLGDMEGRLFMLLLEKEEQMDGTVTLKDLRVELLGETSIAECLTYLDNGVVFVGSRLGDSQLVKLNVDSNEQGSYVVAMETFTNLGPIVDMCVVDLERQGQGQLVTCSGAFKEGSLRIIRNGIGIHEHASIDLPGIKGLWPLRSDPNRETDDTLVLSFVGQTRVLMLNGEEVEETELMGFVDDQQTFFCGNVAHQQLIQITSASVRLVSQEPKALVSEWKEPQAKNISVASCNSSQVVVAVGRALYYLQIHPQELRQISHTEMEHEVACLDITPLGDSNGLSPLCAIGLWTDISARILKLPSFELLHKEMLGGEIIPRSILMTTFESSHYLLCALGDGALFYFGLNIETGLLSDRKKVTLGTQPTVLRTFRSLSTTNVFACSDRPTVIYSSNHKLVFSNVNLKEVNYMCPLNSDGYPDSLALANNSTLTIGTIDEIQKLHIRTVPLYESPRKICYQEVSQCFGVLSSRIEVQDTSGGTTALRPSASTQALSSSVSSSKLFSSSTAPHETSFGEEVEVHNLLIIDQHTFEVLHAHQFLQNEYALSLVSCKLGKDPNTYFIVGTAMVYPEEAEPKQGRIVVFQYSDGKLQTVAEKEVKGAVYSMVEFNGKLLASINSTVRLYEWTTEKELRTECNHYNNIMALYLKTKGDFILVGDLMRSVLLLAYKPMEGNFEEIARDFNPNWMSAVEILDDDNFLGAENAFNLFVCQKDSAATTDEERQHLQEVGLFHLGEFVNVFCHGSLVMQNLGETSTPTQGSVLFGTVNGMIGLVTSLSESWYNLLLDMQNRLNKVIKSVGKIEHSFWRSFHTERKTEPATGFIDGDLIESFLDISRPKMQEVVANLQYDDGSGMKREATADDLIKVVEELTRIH
molecule,measurement,value
"CCCC(=O)Nc1ccc(C(=O)Nc2ncc([N+](=O)[O-])s2)c(OC(=O)CCC)c1 [US20240066136,Compound B-24]",Kd,in the range around 60 µM
"CCCC(=O)Nc1ccc(C(=O)Nc2ncc([N+](=O)[O-])s2)c(NC(C)=O)c1 [US20240066136,Compound B-146]",Kd,20 to 100 µM
"Cc1nc(NC(=O)c2ccccc2NC(=O)CCOCCOCCCOCCN)sc1[N+](=O)[O-] [US20240066136,Compound BL-2]",Kd,in the range around 60 µM
"NCCOCCCOCCOCCC(=O)Nc1ccccc1C(=O)Nc1ncc([N+](=O)[O-])s1 [US20240066136,Compound BL-3]",Kd,in the range around 60 µM
"CC(=O)Nc1cc(C(=O)NCCCCCCN)ccc1C(=O)Nc1nc(C)c([N+](=O)[O-])s1 [US20240066136,Compound BL-4]",Kd,> 0.1 µM
"CC[C@H](C)[C@H](N)C(=O)N[C@@H](CC(C)C)C(=O)N1CCC[C@H]1C(=O)N[C@@H](CCCCN)C(=O)N[C@H](C(=O)N[C@@H](CC(C)C)C(=O)N[C@@H](Cc1cnc[nH]1)C(=O)N[C@@H](CCCCN)C(=O)N[C@@H](CCCNC(=N)N)C(=O)N[C@H](C(=O)N[C@@H](CC(C)C)C(=O)NCC(=O)N[C@@H](CC(C)C)C(=O)N[C@@H](CO)C(=O)O)[C@@H](C)O)C(C)C [US20240066136,Peptide 1]",Kd,< 20 µM
"CC[C@H](C)[C@H](N)C(=O)N[C@@H](CC(C)C)C(=O)N1CCC[C@H]1C(=O)N[C@@H](CCCCN)C(=O)N[C@H](C(=O)N[C@@H](CC(C)C)C(=O)N[C@@H](Cc1cnc[nH]1)C(=O)N[C@@H](CCCCN)C(=O)N[C@@H](CCCNC(=N)N)C(=O)N[C@H](C(=O)N[C@@H](CC(C)C)C(=O)NCC(=O)N[C@@H](CC(C)C)C(=O)O)[C@@H](C)O)C(C)C [US20240066136,Peptide 3]",Kd,< 20 µM
"H-ILPKVLHKRTFGL-OH [US20240066136,Peptide 4]",Kd,< 20 µM
"H-ILPKVWHKRELGLS-OH [US20240066136,Peptide 2]",Kd,< 20 µM
"H-KVLHKRTLG-OH [US20240066136,Peptide 5]",Kd,< 20 µM
"H-NFTSRLNRRASFP-OH [US20240066136,Peptide 6]",Kd,< 20 µM
